Experimental data taken from patent publication US10512700B2, “Radiohalide-labeled targeted diagnostics and therapeutics” (Memorial Sloan Kettering Cancer Center, priority 2014, dated 2019).
“And” between values parts separate entries of the source, which are not always exact repeats. Equal entries are not always repeated.

Legend:
[1] = tested on: U87 MG tumor bearing mice; experiment: Biodistribution; type: in vivo, mouse; conditions: i.v.
Method: Biodistribution experiments were conducted on female nude mice (8-10 weeks old and 20-25 g in weight, n=21) bearing U87 MG subcutaneous xenografts. The radiolabeled preparation (20-30 μCi of compound C-2d (^131I) in 200 μL of a solution 90% PBS 10% PEG300) was administrated via the lateral tail vein. To determine a suitable specific activity (to achieve a sufficiently high tumor to organ ratio), several specific activities were tested (5 mCi/μmol, 50 mCi/μmol, 250 mCi/μmol) in mice bearing U87 MG tumors. The compound was allowed to circulate for 2 h post injection at which time mice were sacrificed and organs were harvested (n=3). The radioactive content in tissue of interest (blood, tumor, muscle, bone, liver, spleen, kidney, heart, lung, pancreas, brain, skin, small intestine, large intestine, stomach, tail, thyroid and feces) was measured on a Wizard 2470 Automatic Gamma Counter, and the tissue-associated activity was calculated as the mean % ID/g using the following formula: [(activity in the target organ/grams of tissue)/injected dose]×100%.
After determining the optimal specific activity (of the three tested), a suitable time window for imaging was determined by testing the compound distribution in nude mice bearing U87 MG tumors at different time points. The compound was allowed to circulate for various times (1, 2, and 6 h), after which the mice were sacrificed (n=3).

[2] = tested on: orthotopic U251 MG tumor-bearing mice; experiment: Autoradiography using C-2d; type: in vivo, mouse
Method: U251 MG glioblastoma cells (5×10^4 in 2 μL of PBS) were orthotopically implanted in athymic nude mice, using a stereotaxic device, and the tumors allowed to grow for approximately 4 weeks. […] Additionally, healthy mice were also injected with 500 μCi C-2d. After 2 h of circulation time after the C-2d injection, the mice were sacrificed. Liver, tumor, muscle, and brain tissues were excised and embedded in O.C.T. compound (Sakura Finetek, Torrance, Calif.) and frozen at −20° C., and a series of 8 μm frozen sections was cut and mounted on microscope slides. To determine radiotracer distribution, digital autoradiography was performed by placing tissue sections in a film cassette against a phosphor image plate (BASMS-2325; Fujifilm) for 48 h at −20° C. Phosphor imaging plates were read at a pixel resolution of 25 μm with a Typhoon 7000IP plate reader (GE Healthcare, Piscataway, N.J.) (images not shown). After autoradiographic exposure, the same frozen sections were then used for […] staining. Areas of brain slides containing tumor tissue were identified using the H&E staining and then overlaid with the autoradiographic data (images not shown). Intensity of tumor areas and non-tumor areas were then quantified using ImageJ 1.47 u (see FIGS. 5A and 5B).

[3] = 50 mCi/μmol, 2 h post injection
[4] = 250 mCi/μmol, 2 h post injection
[5] = autoradiography, mice that received no olaparib

O=C(c1ccc([131I])cc1)N1CCN(C(=O)c2cc(Cc3n[nH]c(=O)c4ccccc34)ccc2F)CC1 [C-2d (^131I)]
% ID/g, Blood ([1]; 5 mCi/μmol, 2 h post injection): 5.88 % ID/g | % ID/g, Bone ([1]; 5 mCi/μmol, 2 h post injection): 0.14 % ID/g | % ID/g, Brain ([1]; 5 mCi/μmol, 2 h post injection): 0.02 % ID/g | % ID/g, Feces ([1]; 5 mCi/μmol, 2 h post injection): 6.23 % ID/g | % ID/g, Heart ([1]; 5 mCi/μmol, 2 h post injection): 0.26 % ID/g | % ID/g, Kidneys ([1]; 5 mCi/μmol, 2 h post injection): 1.08 % ID/g | % ID/g, Large intestine ([1]; 5 mCi/μmol, 2 h post injection): 5.43 % ID/g | % ID/g, Liver ([1]; 5 mCi/μmol, 2 h post injection): 3.14 % ID/g | % ID/g, Lung ([1]; 5 mCi/μmol, 2 h post injection): 0.55 % ID/g | % ID/g, Muscle ([1]; 5 mCi/μmol, 2 h post injection): 0.27 % ID/g | % ID/g, Pancreas ([1]; 5 mCi/μmol, 2 h post injection): 0.67 % ID/g | % ID/g, Skin ([1]; 5 mCi/μmol, 2 h post injection): 0.26 % ID/g | % ID/g, Small intestine ([1]; 5 mCi/μmol, 2 h post injection): 14.16 % ID/g | % ID/g, Spleen ([1]; 5 mCi/μmol, 2 h post injection): 0.60 % ID/g | % ID/g, Stomach ([1]; 5 mCi/μmol, 2 h post injection): 5.86 % ID/g | % ID/g, Tail ([1]; 5 mCi/μmol, 2 h post injection): 2.31 % ID/g | % ID/g, Thyroid ([1]; 5 mCi/μmol, 2 h post injection): 0.37 % ID/g | % ID/g, Tumor ([1]; 5 mCi/μmol, 2 h post injection): 0.32 % ID/g | % ID/g, Blood [1, 3]: 0.90 % ID/g | % ID/g, Bone [1, 3]: 0.04 % ID/g | % ID/g, Brain [1, 3]: 0.007 % ID/g | % ID/g, Feces [1, 3]: 3.75 % ID/g | % ID/g, Heart [1, 3]: 0.10 % ID/g | % ID/g, Kidneys [1, 3]: 0.35 % ID/g | % ID/g, Large intestine [1, 3]: 0.94 % ID/g | % ID/g, Liver [1, 3]: 1.02 % ID/g | % ID/g, Lung [1, 3]: 0.28 % ID/g | % ID/g, Muscle [1, 3]: 0.04 % ID/g | % ID/g, Pancreas [1, 3]: 0.42 % ID/g | % ID/g, Skin [1, 3]: 0.092 % ID/g | % ID/g, Small intestine [1, 3]: 7.17 % ID/g | % ID/g, Spleen [1, 3]: 0.15 % ID/g | % ID/g, Stomach [1, 3]: 1.90 % ID/g | % ID/g, Tail [1, 3]: 0.45 % ID/g | % ID/g, Thyroid [1, 3]: 0.14 % ID/g | % ID/g, Tumor [1, 3]: 0.17 % ID/g | % ID/g, Blood [1, 4]: 4.78 % ID/g | % ID/g, Bone [1, 4]: 0.09 % ID/g | % ID/g, Brain [1, 4]: 0.06 % ID/g | % ID/g, Feces [1, 4]: 67.25 % ID/g | % ID/g, Heart [1, 4]: 0.16 % ID/g | % ID/g, Kidneys [1, 4]: 0.58 % ID/g | % ID/g, Large intestine [1, 4]: 17.29 % ID/g | % ID/g, Liver [1, 4]: 2.17 % ID/g | % ID/g, Lung [1, 4]: 0.43 % ID/g | % ID/g, Muscle [1, 4]: 0.074 % ID/g | % ID/g, Pancreas [1, 4]: 0.27 % ID/g | % ID/g, Skin [1, 4]: 0.14 % ID/g | % ID/g, Small intestine [1, 4]: 7.55 % ID/g | % ID/g, Spleen [1, 4]: 0.43 % ID/g | % ID/g, Stomach [1, 4]: 1.25 % ID/g | % ID/g, Tail [1, 4]: 0.58 % ID/g | % ID/g, Thyroid [1, 4]: 0.20 % ID/g | % ID/g, Tumor [1, 4]: 0.18 % ID/g | % ID/g, Blood ([1]; 1 h post injection): 2.76 % ID/g | % ID/g, Bone ([1]; 1 h post injection): 0.19 % ID/g | % ID/g, Brain ([1]; 1 h post injection): 0.034 % ID/g | % ID/g, Feces ([1]; 1 h post injection): 7.31 % ID/g | % ID/g, Heart ([1]; 1 h post injection): 0.39 % ID/g | % ID/g, Kidneys ([1]; 1 h post injection): 1.60 % ID/g | % ID/g, Large intestine ([1]; 1 h post injection): 1.49 % ID/g | % ID/g, Liver ([1]; 1 h post injection): 4.61 % ID/g | % ID/g, Lung ([1]; 1 h post injection): 0.71 % ID/g | % ID/g, Muscle ([1]; 1 h post injection): 0.27 % ID/g | % ID/g, Pancreas ([1]; 1 h post injection): 0.74 % ID/g | % ID/g, Skin ([1]; 1 h post injection): 0.46 % ID/g | % ID/g, Small intestine ([1]; 1 h post injection): 13.70 % ID/g | % ID/g, Spleen ([1]; 1 h post injection): 0.64 % ID/g | % ID/g, Stomach ([1]; 1 h post injection): 1.88 % ID/g | % ID/g, Tail ([1]; 1 h post injection): 1.00 % ID/g | % ID/g, Thyroid ([1]; 1 h post injection): 0.56 % ID/g | % ID/g, Tumor ([1]; 1 h post injection): 0.50 % ID/g | % ID/g, Blood ([1]; 2 h post injection): 0.90 % ID/g | % ID/g, Bone ([1]; 2 h post injection): 0.044 % ID/g | % ID/g, Brain ([1]; 2 h post injection): 0.007±0.002 % ID/g and 0.007 % ID/g | % ID/g, Feces ([1]; 2 h post injection): 3.75 % ID/g | % ID/g, Heart ([1]; 2 h post injection): 0.10 % ID/g | % ID/g, Kidneys ([1]; 2 h post injection): 0.35 % ID/g | % ID/g, Large intestine ([1]; 2 h post injection): 0.94 % ID/g | % ID/g, Liver ([1]; 2 h post injection): 1.02 % ID/g | % ID/g, Lung ([1]; 2 h post injection): 0.28 % ID/g | % ID/g, Muscle ([1]; 2 h post injection): 0.04±0.02 % ID/g and 0.039 % ID/g | % ID/g, Pancreas ([1]; 2 h post injection): 0.42 % ID/g | % ID/g, Skin ([1]; 2 h post injection): 0.091 % ID/g | % ID/g, Small intestine ([1]; 2 h post injection): 7.16 % ID/g | % ID/g, Spleen ([1]; 2 h post injection): 0.15 % ID/g | % ID/g, Stomach ([1]; 2 h post injection): 1.90 % ID/g | % ID/g, Tail ([1]; 2 h post injection): 0.45 % ID/g | % ID/g, Thyroid ([1]; 2 h post injection): 0.14 % ID/g | % ID/g, Tumor ([1]; 2 h post injection): 0.17±0.06 % ID/g and 0.17 % ID/g | % ID/g, Blood ([1]; 6 h post injection): 0.34 % ID/g | % ID/g, Bone ([1]; 6 h post injection): 0.035 % ID/g | % ID/g, Brain ([1]; 6 h post injection): 0.008 % ID/g | % ID/g, Feces ([1]; 6 h post injection): 70.67 % ID/g | % ID/g, Heart ([1]; 6 h post injection): 0.075 % ID/g | % ID/g, Kidneys ([1]; 6 h post injection): 0.24 % ID/g | % ID/g, Large intestine ([1]; 6 h post injection): 1.33 % ID/g | % ID/g, Liver ([1]; 6 h post injection): 0.65 % ID/g | % ID/g, Lung ([1]; 6 h post injection): 0.12 % ID/g | % ID/g, Muscle ([1]; 6 h post injection): 0.023 % ID/g | % ID/g, Pancreas ([1]; 6 h post injection): 0.084 % ID/g | % ID/g, Skin ([1]; 6 h post injection): 0.072 % ID/g | % ID/g, Small intestine ([1]; 6 h post injection): 1.13 % ID/g | % ID/g, Spleen ([1]; 6 h post injection): 0.060 % ID/g | % ID/g, Stomach ([1]; 6 h post injection): 0.81 % ID/g | % ID/g, Tail ([1]; 6 h post injection): 0.31 % ID/g | % ID/g, Thyroid ([1]; 6 h post injection): 0.098 % ID/g | % ID/g, Tumor ([1]; 6 h post injection): 0.13 % ID/g | signal intensity in tumor tissue vs healthy brain tissue [2, 5]: 15.7 fold | signal intensity in tumor tissue vs muscle tissue [2, 5]: 6.2 fold | reduction in intensity of the autoradiography signal in tumor tissue ([2]; mice treated with olaparib): 65% | autoradiography signal, muscle ([2]; with olaparib treatment): 248±72 AU | autoradiography signal, tumor tissue ([2]; with olaparib treatment): 536±87 AU | autoradiography signal, muscle ([2]; without olaparib treatment): 192±20 AU | autoradiography signal, tumor tissue ([2]; without olaparib treatment): 1222±203 AU
